Consider seven compounds from paper PMC6273168, “Synthesis and Biological Evaluation of Novel 4-Morpholino-7,8-dihydro-5H-thiopyrano[4,3-d]pyrimidine Derivatives Bearing Phenylpyridine/ Phenylpyrimidine-Carboxamides” (Molecules, 2016).

Each structure is given as a SMILES string.

In data set [1] the test system is MCF-7 (human breast cancer) cell line. As to the kind of experiment: MTT cell proliferation (cytotoxicity) assay, MCF-7. It counts as cell-based. The following applies: Homo sapiens, MCF7, 72 h, average of two separate determinations. Here is the method: (§1) Taking GDC-0941 as reference compound, the target compounds […], 12a–j, 13a–g and 14a–g ere evaluated for the cytotoxicity against the three cancer cell lines A549, PC-3 and MCF-7 usg 3-(4,5-dimethylthiazolyl-2)-2,5-diphenyltetrazolium bromide (MTT) cell proliferation assays. In addition, one selected compounds 12h was fher evaluated for PI3Kα kinase inhibitory activity. The results, expressed as IC50 values or inhibitory rate, are sumrized in Table 1, Table 2 and Table 3.
(§2) The in vitro cytotoxic activities of all the compounds 11a–11j, 12a–12j, 13a–13g and 14a–14g was evaluated with A549, PC-3 and MCF-7 cell lines by the standard MTT assay, with GDC-0941 as positive control. The cancer cell lines were cultured in minimum essential medium (MEM) supplement with 10% fetal bovine serum (FBS). Approximately 4 × 10^3 cells, suspended in MEM medium, were plated onto each well of a 96-well plate and incubated in 5% CO2 at 37 °C for 24 h. The test compounds at indicated final concentrations were added to the culture medium and the cell cultures were continued for 72 h. Fresh MTT was added to each well at a terminal concentration of […] and incubated with cells at 37 °C for 4 h. The formazan crystals were dissolved in 100 µL DMSO each well, and the absorbency at 492 nm (for absorbance of MTT formazan) and 630 nm (for the reference wavelength) was measured with an ELISA reader. All of the compounds were tested three times in each of the cell lines. The results expressed as inhibition rates or IC50 (half-maximal inhibitory concentration) were the averages of two determinations and calculated by using the Bacus Laboratories Inc. Slide Scanner (Bliss) software (the Bacus Laboratories Inc. Slide Scanner (BLISS) system, Lombard, IL, USA).

The target of data set [2] is PI3Kα (Homo sapiens, UniProt P42336). The data set is described as follows: PI3Kα Kinase-Glo Luminescent Kinase Assay. It is filed as biochemical. On the technique in general: Kinase-Glo measures the ATP left after a reaction by luminescence.
Sequence of PI3Kα (P42336 whole entry): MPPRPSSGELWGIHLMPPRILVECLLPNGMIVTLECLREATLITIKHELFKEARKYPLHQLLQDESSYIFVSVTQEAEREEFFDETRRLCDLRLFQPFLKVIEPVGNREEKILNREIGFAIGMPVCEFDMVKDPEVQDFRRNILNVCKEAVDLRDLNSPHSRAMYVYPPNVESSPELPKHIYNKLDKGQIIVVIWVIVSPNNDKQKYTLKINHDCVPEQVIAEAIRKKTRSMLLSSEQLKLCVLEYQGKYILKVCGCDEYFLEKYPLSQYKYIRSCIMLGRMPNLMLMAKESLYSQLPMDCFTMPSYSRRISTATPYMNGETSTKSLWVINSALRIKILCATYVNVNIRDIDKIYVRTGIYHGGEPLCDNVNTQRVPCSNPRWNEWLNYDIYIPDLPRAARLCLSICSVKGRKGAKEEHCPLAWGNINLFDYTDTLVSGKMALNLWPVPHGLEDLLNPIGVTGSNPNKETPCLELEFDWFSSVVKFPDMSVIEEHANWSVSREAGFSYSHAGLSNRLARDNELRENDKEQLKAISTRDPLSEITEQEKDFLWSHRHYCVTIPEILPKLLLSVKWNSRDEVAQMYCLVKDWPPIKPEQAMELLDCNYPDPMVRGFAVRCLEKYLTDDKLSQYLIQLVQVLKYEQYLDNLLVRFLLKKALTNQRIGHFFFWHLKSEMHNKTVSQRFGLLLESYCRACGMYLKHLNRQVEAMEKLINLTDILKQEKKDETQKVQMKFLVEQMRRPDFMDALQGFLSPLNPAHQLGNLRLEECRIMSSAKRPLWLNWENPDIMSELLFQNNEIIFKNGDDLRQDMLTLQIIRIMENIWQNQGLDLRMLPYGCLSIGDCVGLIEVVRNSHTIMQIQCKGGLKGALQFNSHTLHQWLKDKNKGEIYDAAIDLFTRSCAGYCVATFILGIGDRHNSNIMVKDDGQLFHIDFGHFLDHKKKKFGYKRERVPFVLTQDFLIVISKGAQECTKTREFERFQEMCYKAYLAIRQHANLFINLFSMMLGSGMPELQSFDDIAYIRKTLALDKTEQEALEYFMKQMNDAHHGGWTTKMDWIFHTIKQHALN
Sequence of PI3Kα (P27986 whole entry partner): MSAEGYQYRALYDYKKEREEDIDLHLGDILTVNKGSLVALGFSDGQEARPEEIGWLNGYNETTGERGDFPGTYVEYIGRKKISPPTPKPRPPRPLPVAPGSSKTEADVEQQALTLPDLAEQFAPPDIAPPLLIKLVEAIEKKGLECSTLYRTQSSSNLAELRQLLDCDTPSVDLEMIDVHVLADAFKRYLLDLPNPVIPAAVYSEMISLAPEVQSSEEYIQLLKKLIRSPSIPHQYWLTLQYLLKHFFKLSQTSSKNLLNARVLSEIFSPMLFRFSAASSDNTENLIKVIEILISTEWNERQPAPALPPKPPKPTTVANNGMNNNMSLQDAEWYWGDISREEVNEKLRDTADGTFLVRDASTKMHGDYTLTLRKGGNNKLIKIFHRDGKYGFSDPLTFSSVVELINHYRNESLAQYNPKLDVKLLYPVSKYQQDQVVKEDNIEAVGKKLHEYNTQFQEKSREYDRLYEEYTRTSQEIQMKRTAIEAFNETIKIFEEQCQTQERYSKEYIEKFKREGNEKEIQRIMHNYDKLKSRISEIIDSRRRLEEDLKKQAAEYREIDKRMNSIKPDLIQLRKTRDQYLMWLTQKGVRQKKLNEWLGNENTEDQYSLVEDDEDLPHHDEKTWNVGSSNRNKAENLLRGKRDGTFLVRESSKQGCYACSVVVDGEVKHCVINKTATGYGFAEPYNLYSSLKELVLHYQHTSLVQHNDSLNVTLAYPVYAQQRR
Data set [3] concerns PC-3 (human prostatic cancer) cell line. As to the kind of experiment: MTT cell proliferation (cytotoxicity) assay, PC-3. It counts as cell-based. The following applies: Homo sapiens, 72 h, average of two separate determinations. Here is the method: as §1, §2
Data set [4] has as its system A549 (human lung cancer) cell line. As to the kind of experiment: MTT cell proliferation (cytotoxicity) assay, A549. It is filed as cell-based. The following applies: Homo sapiens, A549, 72 h, average of two separate determinations. Here is the method:
as §1, §2

One may read the IC50 as the point on the concentration scale where inhibition reaches its midpoint. A higher IC50 goes with lower potency. As a reminder, the melting point is the temperature, or range, at which the solid turns liquid. Regarding `CCc1ccc(-c2ccnc(C(=O)Nc3ccc(-c4nc5c(c(N6CCOCC6)n4)CS(=O)(=O)CC5)cc3)c2)cc1` [Compound 12h, N-(4-(4-Morpholino-7,8-dihydro-6,6-dioxide-5H-thiopyrano[4,3-d]pyrimidin-2-yl)phenyl)-4-(4-ethylphenyl) picolinamide], the melting point was in the range of 276.8 to 279.1 °C. The compound further registered an IC50 in data set [1] (Table 1) of 9.26 ± 0.82 µM. This compound also displayed an IC50 in data set [2] (Kinase-Glo, 1 µM ATP, 60 min, average of two separate determinations) of 7.39 ± 0.194 µM. Moreover, in data set [2] (at 10 µM, in words), the “inhibitory rate against PI3Ka kinase” value was “moderate”. In data set [3] (Table 1), this compound yielded an IC50 of 11.34 ± 0.11 µM. 8.37 ± 0.1 µM corresponded to half-maximal inhibition in data set [4] (Table 1) (IC50).

Compound `COc1ccc(-c2cc(C(=O)Nc3ccc(-c4nc5c(c(N6CCOCC6)n4)CS(=O)(=O)CC5)cc3)ncn2)cc1` [Compound 14b] registered a melting point of 277 to 279.5 °C. In data set [1] (Table 2), this compound returned an IC50 of 89.6 ± 0.91 µM. In addition, the IC50 in data set [3] (Table 2) was more than 100 µM. Also, the IC50 in data set [4] (Table 2) is more than 100 µM.

Turning to `O=C(Nc1ccc(-c2nc3c(c(N4CCOCC4)n2)CS(=O)(=O)CC3)cc1)c1cc(-c2ccc(C(F)(F)F)cc2)ncn1` [Compound 14c], the melting point was in the range of 287.1 to 289.2 °C. The compound also displayed an IC50 in data set [1] (Table 2) of more than 100 µM. The compound also had an IC50 in data set [3] (Table 2) of more than 100 µM. In data set [4] (Table 2), this compound came in with an IC50 of more than 100 µM.

Take `O=C(Nc1ccc(-c2nc3c(c(N4CCOCC4)n2)CS(=O)(=O)CC3)cc1)c1cc(-c2ccc(F)cc2)ncn1` [Compound 14d]: the melting point was more than 300 °C. This compound also displayed an IC50 in data set [1] (Table 2) of more than 100 µM. The compound also displayed an IC50 in data set [3] (Table 2) of more than 100 µM. In data set [4] (Table 2), this compound had an IC50 of more than 100 µM.

For `O=C(Nc1ccc(-c2nc3c(c(N4CCOCC4)n2)CS(=O)(=O)CC3)cc1)c1cc(-c2ccc(Br)cc2)ncn1` [Compound 14e], the melting point was more than 300 °C. The compound further had an IC50 in data set [1] (Table 2) of 27.4 ± 1.27 µM. In data set [3] (Table 2), the IC50 is more than 100 µM. Further, in data set [4] (Table 2), the IC50 was more than 100 µM.

In the case of `O=C(Nc1ccc(-c2nc3c(c(N4CCOCC4)n2)CS(=O)(=O)CC3)cc1)c1cc(-c2ccc(Cl)cc2)ncn1` [Compound 14f], the melting point is more than 300 °C. In data set [1] (Table 2), this compound showed an IC50 of more than 100 µM. The compound also yielded an IC50 in data set [3] (Table 2) of more than 100 µM. In data set [4] (Table 2), this compound gave a half-maximal inhibitory concentration (IC50) of more than 100 µM.

In turn, `O=C(Nc1ccc(-c2nc3c(c(N4CCOCC4)n2)CS(=O)(=O)CC3)cc1)c1cc(-c2ccccc2)ncn1` [Compound 14g] had a melting point of 294.2 to 296.6 °C. This compound also gave a half-maximal inhibitory concentration (IC50) in data set [1] (Table 2) of more than 100 µM. This compound displayed an IC50 in data set [3] (Table 2) of more than 100 µM. In data set [4] (Table 2), the IC50 was more than 100 µM.
